Experimental data published in PubChem BioAssay (NCI).
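Dose response: 5 concentrations. Exposure: 48 h. Format: 96-well plates. Endpoint: linear interpolation; highest concentration if not reached. At the GI50, growth is halved. TGI: concentration producing complete growth inhibition.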

Assays:
Assay in all cases: DTP human tumour cell line panel, 48 h
786-0 renal = test system: 786-0 renal
A498 renal = test system: A498 renal
A549 NSCLC = test system: A549 NSCLC
ACHN renal = test system: ACHN renal
BT-549 breast = test system: BT-549 breast
CAKI-1 renal = test system: CAKI-1 renal
COLO 205 colon = test system: COLO 205 colon
DU-145 prostate = test system: DU-145 prostate
EKVX NSCLC = test system: EKVX NSCLC
HCC-2998 colon = test system: HCC-2998 colon
HCT-116 colon = test system: HCT-116 colon
HCT-15 colon = test system: HCT-15 colon
HL-60(TB) leukemia = test system: HL-60(TB) leukemia
HOP-62 NSCLC = test system: HOP-62 NSCLC
HOP-92 NSCLC = test system: HOP-92 NSCLC
HS 578T breast = test system: HS 578T breast
HT29 colon = test system: HT29 colon
IGROV1 ovarian = test system: IGROV1 ovarian
K-562 leukemia = test system: K-562 leukemia
KM12 colon = test system: KM12 colon
LOX IMVI melanoma = test system: LOX IMVI melanoma
M14 melanoma = test system: M14 melanoma
MALME-3M melanoma = test system: MALME-3M melanoma
MCF7 breast = test system: MCF7 breast
MDA-MB-231 breast = test system: MDA-MB-231 breast
MDA-MB-435 = test system: MDA-MB-435
MOLT-4 leukemia = test system: MOLT-4 leukemia
NCI-H226 lung = test system: NCI-H226 lung
NCI-H23 lung = test system: NCI-H23 lung
NCI-H460 lung = test system: NCI-H460 lung
NCI-H522 lung = test system: NCI-H522 lung
NCI/ADR-RES ovarian = test system: NCI/ADR-RES ovarian
OVCAR-3 ovarian = test system: OVCAR-3 ovarian
OVCAR-4 ovarian = test system: OVCAR-4 ovarian
OVCAR-5 ovarian = test system: OVCAR-5 ovarian
OVCAR-8 ovarian = test system: OVCAR-8 ovarian
RXF 393 renal = test system: RXF 393 renal
SF-268 CNS = test system: SF-268 CNS
SF-295 CNS = test system: SF-295 CNS
SF-539 CNS = test system: SF-539 CNS
SK-MEL-2 melanoma = test system: SK-MEL-2 melanoma
SK-MEL-28 melanoma = test system: SK-MEL-28 melanoma
SK-MEL-5 melanoma = test system: SK-MEL-5 melanoma
SK-OV-3 ovarian = test system: SK-OV-3 ovarian
SN12C renal = test system: SN12C renal
SNB-19 CNS = test system: SNB-19 CNS
SNB-75 CNS = test system: SNB-75 CNS
SR leukemia = test system: SR leukemia
SW-620 colon = test system: SW-620 colon
T-47D breast = test system: T-47D breast
TK-10 renal = test system: TK-10 renal
U251 CNS = test system: U251 CNS
UACC-257 melanoma = test system: UACC-257 melanoma
UACC-62 melanoma = test system: UACC-62 melanoma
UO-31 renal = test system: UO-31 renal

SMILES: CCN(CC)CCn1c2ccc(OC)cc2c2sc3cc(OC)ccc3c(=O)c21
- GI50 (786-0 renal): 1590 nM
- TGI (786-0 renal): 3230 nM
- GI50 (A498 renal): 1120 nM
- TGI (A498 renal): 2350 nM
- GI50 (A549 NSCLC): 1590 nM
- TGI (A549 NSCLC): 5710 nM
- GI50 (ACHN renal): 1000 nM
- TGI (ACHN renal): 2770 nM
- GI50 (BT-549 breast): 2240 nM
- TGI (BT-549 breast): 5950 nM
- GI50 (CAKI-1 renal): 1650 nM
- TGI (CAKI-1 renal): 3770 nM
- GI50 (COLO 205 colon): 1390 nM
- TGI (COLO 205 colon): 3320 nM
- GI50 (DU-145 prostate): 1670 nM
- TGI (DU-145 prostate): 3700 nM
- GI50 (EKVX NSCLC): 1600 nM
- TGI (EKVX NSCLC): 3360 nM
- GI50 (HCC-2998 colon): 1480 nM
- TGI (HCC-2998 colon): 3140 nM
- GI50 (HCT-116 colon): 659 nM
- TGI (HCT-116 colon): 2020 nM
- GI50 (HCT-15 colon): 861 nM
- TGI (HCT-15 colon): 2660 nM
- GI50 (HL-60(TB) leukemia): 1770 nM
- TGI (HL-60(TB) leukemia): 4220 nM
- GI50 (HOP-62 NSCLC): 2320 nM
- TGI (HOP-62 NSCLC): 8620 nM
- GI50 (HOP-92 NSCLC): 1130 nM
- TGI (HOP-92 NSCLC): 2750 nM
- GI50 (HS 578T breast): 1960 nM
- TGI (HS 578T breast): 4980 nM
- GI50 (HT29 colon): 1510 nM
- TGI (HT29 colon): 9120 nM
- GI50 (IGROV1 ovarian): 1530 nM
- TGI (IGROV1 ovarian): 3610 nM
- GI50 (K-562 leukemia): 728 nM
- TGI (K-562 leukemia): 2760 nM
- GI50 (KM12 colon): 2000 nM
- TGI (KM12 colon): 4320 nM
- GI50 (LOX IMVI melanoma): 1300 nM
- TGI (LOX IMVI melanoma): 2740 nM
- GI50 (M14 melanoma): 1640 nM
- TGI (M14 melanoma): 3080 nM
- GI50 (MALME-3M melanoma): 1590 nM
- TGI (MALME-3M melanoma): 3180 nM
- GI50 (MCF7 breast): 1160 nM
- TGI (MCF7 breast): 2450 nM
- GI50 (MDA-MB-231 breast): 1540 nM
- TGI (MDA-MB-231 breast): 3310 nM
- GI50 (MDA-MB-435): 1730 nM
- TGI (MDA-MB-435): 3220 nM
- GI50 (MOLT-4 leukemia): 383 nM
- TGI (MOLT-4 leukemia): 1890 nM
- GI50 (NCI-H226 lung): 2460 nM
- TGI (NCI-H226 lung): 7490 nM
- GI50 (NCI-H23 lung): 1900 nM
- TGI (NCI-H23 lung): 4340 nM
- GI50 (NCI-H460 lung): 1080 nM
- TGI (NCI-H460 lung): 2520 nM
- GI50 (NCI-H522 lung): 1710 nM
- TGI (NCI-H522 lung): 4220 nM
- GI50 (NCI/ADR-RES ovarian): 1240 nM
- TGI (NCI/ADR-RES ovarian): 3600 nM
- GI50 (OVCAR-3 ovarian): 2120 nM
- TGI (OVCAR-3 ovarian): 4540 nM
- GI50 (OVCAR-4 ovarian): 1840 nM
- TGI (OVCAR-4 ovarian): 4880 nM
- GI50 (OVCAR-5 ovarian): 1920 nM
- TGI (OVCAR-5 ovarian): 4920 nM
- GI50 (OVCAR-8 ovarian): 1930 nM
- TGI (OVCAR-8 ovarian): 11300 nM
- GI50 (RXF 393 renal): 1400 nM
- TGI (RXF 393 renal): 2790 nM
- GI50 (SF-268 CNS): 1870 nM
- TGI (SF-268 CNS): 5350 nM
- GI50 (SF-295 CNS): 1820 nM
- TGI (SF-295 CNS): 3450 nM
- GI50 (SF-539 CNS): 1660 nM
- TGI (SF-539 CNS): 3050 nM
- GI50 (SK-MEL-2 melanoma): 2100 nM
- TGI (SK-MEL-2 melanoma): 4680 nM
- GI50 (SK-MEL-28 melanoma): 1700 nM
- TGI (SK-MEL-28 melanoma): 3120 nM
- GI50 (SK-MEL-5 melanoma): 1740 nM
- TGI (SK-MEL-5 melanoma): 3120 nM
- GI50 (SK-OV-3 ovarian): 3070 nM
- TGI (SK-OV-3 ovarian): 10300 nM
- GI50 (SN12C renal): 2030 nM
- TGI (SN12C renal): 8750 nM
- GI50 (SNB-19 CNS): 2430 nM
- TGI (SNB-19 CNS): 10000 nM
- GI50 (SNB-75 CNS): 1110 nM
- TGI (SNB-75 CNS): 6480 nM
- GI50 (SR leukemia): 704 nM
- TGI (SR leukemia): 3050 nM
- GI50 (SW-620 colon): 825 nM
- TGI (SW-620 colon): 2410 nM
- GI50 (T-47D breast): 2000 nM
- TGI (T-47D breast): 4890 nM
- GI50 (TK-10 renal): 2330 nM
- TGI (TK-10 renal): 8150 nM
- GI50 (U251 CNS): 1550 nM
- TGI (U251 CNS): 3630 nM
- GI50 (UACC-257 melanoma): 1920 nM
- TGI (UACC-257 melanoma): 3940 nM
- GI50 (UACC-62 melanoma): 1800 nM
- TGI (UACC-62 melanoma): 3470 nM
- GI50 (UO-31 renal): 1350 nM
- TGI (UO-31 renal): 3020 nM
